What is called melting point is the temperature of the solid-liquid transition. `N#Cc1ccc(N2C(=O)C=CC2=O)cc1`: the melting point was in the range of 138 to 140 °C.
Next, `c1cncc(-c2ncc[nH]2)c1`: 208 to 210 °C.
Next, `Nc1cc(C2CC2)no1`: 52 to 54 °C.
Molecule `O=C(O)C1CC1C1CC1` (centres undefined) showed a melting point of 29 to 31 °C.
`CCCCCC(C)CNC(=S)NN` (centres undefined) had a melting point of 48 to 50 °C.
Next, `CC(C)(C)NS(=O)(=O)c1ccc(NN)nc1`: 124 to 126 °C; `O=C(CCCl)Nc1ccc2c(c1)OCO2`: 142 to 144 °C; `O=C1CCCc2sccc2N1`: 119 to 121 °C.
Next, `COc1ccc(CCC(=O)CC#N)cc1`: 58 to 60 °C; `CCCc1cc(O)c2ccccc2n1`: 168 to 170 °C; `O=C(CO)NCc1ccccc1`: 101 to 103 °C.
Next, `CNS(=O)(=O)c1ccc(Cl)s1`: 45 to 47 °C.
`Nc1ccc(S(=O)(=O)Nc2ccc([N+](=O)[O-])cc2)cc1` displayed a melting point of 162 to 164 °C.
Next, `O=C(CCl)NCc1ccc(-c2ccc(Cl)cc2)o1`: 213 to 218 °C; `CN1CCN(c2cc(CN)ccn2)CC1`: 72 to 74 °C; `CCOC(=O)Cc1nnc(N)s1`: 156 to 158 °C.
Next, `CC(C)(C)C(=O)Nc1ccc(F)c(C(=O)O)c1`: 179 to 181 °C; `O=C(O)CNS(=O)(=O)Cc1ccccc1`: 153 to 155 °C.
Next, `O=C(O)c1cccc(NS(=O)(=O)c2ccccc2)c1`: 199 to 201 °C; `NC(=O)C1Cc2[nH]cnc2CN1` (centres undefined): 249 to 251 °C.
Molecule `CSCC(=O)Nc1ccc(O)cc1` yielded a melting point of 107 to 109 °C.
As to `CC(C)(C)c1ccc(-c2ccc(C=O)o2)cc1`, the melting point was 70 to 72 °C.
Next, `NC(=O)CN(Cc1ccccc1)c1cccc(N)c1`: 169 to 171 °C.
The molecule `CCOc1ccc2c(c1)C=C(C(=O)O)CO2` showed a melting point of 186 to 188 °C.
Molecule `COc1ccc(CN2CCN(C(=O)CCNC(=O)c3ccc(C(C)(C)C)cc3)CC2)cc1` had a melting point of 102 to 104 °C.
Next, `O=[N+]([O-])c1cncc(Br)c1`: 99 to 101 °C; `O=C(O)c1cccc(C(=O)N2CCS(=O)(=O)CC2)n1`: 217 to 219 °C.
Next, `O=C(CCCl)Nc1ccccn1`: 104 to 106 °C; `NNS(=O)(=O)CCc1ccccc1`: 62 to 64 °C.
Regarding `CCOC(=O)c1ncccc1N`, the melting point lay in the range of 127 to 129 °C.
Molecule `CNC(=O)COc1ccc(CC(=O)O)cc1` yielded a melting point of 143 to 145 °C.
Next, `N#CCOc1ccc(N)cc1`: 51 to 53 °C; `Cc1ccc(NC(=O)C2CSCN2)c(C)c1` (centres undefined): 89 to 91 °C; `NCCNc1ccncc1`: 118 to 120 °C.
Molecule `Cc1ccc(-c2nc(C)c(C(C)N)s2)cc1` (centres undefined) gave a melting point of 57 to 59 °C.
Next, `O=C(NCc1ccccc1)c1ccc(-n2ccnc2S)cc1`: 216 to 218 °C; `COC(=O)c1ccoc1CSc1ccccc1C(=O)O`: 157 to 159 °C.
Next, `N#CC1=C(N)CCCC1`: 92 to 94 °C; `O=CNc1ccc(C(=O)O)cc1`: 264 to 266 °C.
Next, `Nc1cccc(COc2ccc3c(c2)OCO3)c1`: 67 to 69 °C; `COc1ccc(OCCC(=O)O)cc1`: 104 to 106 °C.
With `NC(=O)CNS(=O)(=O)c1cccc(C(=O)O)c1`, the melting point is 259 to 261 °C.
Regarding `Cc1ccc(-n2ccnc2)c(C(=O)O)c1`, the melting point fell in the range of 259 to 261 °C.
As for `Cc1nc(S)nc(C)c1CCC(=O)O`, the melting point lay within 154 to 156 °C.
Consider `Nc1cc(Br)ccc1C(=O)O`, for which the melting point lay within 222 to 224 °C.
Regarding `O=C(O)CNC(=O)c1ccsc1`, the melting point fell in the range of 176 to 178 °C.
In turn, `O=C1CCOc2cc(Br)ccc21` gave a melting point of 89 to 91 °C.
Next, `COC(=O)c1ccc2[nH]ncc2c1`: 193 to 195 °C; `COc1ccc(NS(=O)(=O)c2cc(N)ccc2N2CCCC2)cc1`: 178 to 182 °C.

The record behind these values is a melting point compilation (Tetko et al.).
